The supplement of paper PMC9780213

Tests used:
Conditions in all cases: treatment time: 24 h
[1] = test system: U2OS-LMNB1-TUBA1B-ACTB; experiment: cell count relative to DMSO control (panel C1, DRAQ5/ER stain) (fraction of control); higher = more cells (less toxicity)
Protocol: (§1)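 U2OS-derived cells in 384-well plates were treated for 24 h with a 7-point 2-fold dilution series (top dose 20 µM for most compounds; final max DMSO 1%), then fixed, stained in four marker panels and imaged on a Cellomics ArrayScan. Cell count per treatment (three replicate plates merged) is given as a fraction of DMSO control. Panel A used parental U2OS, panel B U2OS-mOrange2-Peroxisome, panel C1 U2OS-LMNB1-TUBA1B-ACTB (DRAQ5 nuclei).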

[2] = test system: U2OS-mOrange2-Peroxisome; experiment: cell count relative to DMSO control (panel B, lysosome/peroxisome/lipid stain) (fraction of control); higher = more cells (less toxicity)
Protocol: as §1

[3] = test system: U2OS; experiment: cell count relative to DMSO control (panel A, nuclei/RNA/PMG/mitochondria stain) (fraction of control); higher = more cells (less toxicity)
Protocol: as §1

Row | Structure (SMILES) | cell count ([1]; 0.07812 µM) | cell count ([1]; 0.15625 µM) | cell count ([1]; 0.3125 µM) | cell count ([1]; 0.625 µM) | cell count ([1]; 1.25 µM) | cell count ([1]; 2.5 µM) | cell count ([1]; 5 µM) | cell count ([2]; 0.07812 µM) | cell count ([2]; 0.15625 µM) | cell count ([2]; 0.3125 µM) | cell count ([2]; 0.625 µM) | cell count ([2]; 1.25 µM) | cell count ([2]; 2.5 µM) | cell count ([2]; 5 µM) | cell count ([3]; 0.07812 µM) | cell count ([3]; 0.15625 µM) | cell count ([3]; 0.3125 µM) | cell count ([3]; 0.625 µM) | cell count ([3]; 1.25 µM) | cell count ([3]; 2.5 µM) | cell count ([3]; 5 µM) | cell count ([1]; 10 µM) | cell count ([1]; 20 µM) | cell count ([2]; 10 µM) | cell count ([2]; 20 µM) | cell count ([3]; 10 µM) | cell count ([3]; 20 µM)
1 | CC(=O)N[C@H]1[C@@H](O[C@@H]2O[C@H](CC(O)[C@H]3O[C@@H](n4ccc(=O)[nH]c4=O)[C@H](O)[C@@H]3O)[C@H](O)[C@H](O)[C@H]2NC(=O)/C=C/CC(C)C)O[C@H](CO)[C@@H](N)[C@@H]1O (stereo partly drawn) [tunicamycin] | 0.934 | 0.611 | 0.555 | 0.626 | 0.596 | 0.552 | 0.491 | 0.498 | 0.477 | 0.558 | 0.528 | 0.587 | 0.448 | 0.517 | 0.979 | 0.654 | 0.663 | 0.582 | 0.61 | 0.535 | 0.535 | – | – | – | – | – | –
2 | CC[C@]1(O)C[C@H]2CN(CCc3c([nH]c4ccccc34)[C@@](C(=O)OC)(c3cc4c(cc3OC)N(C=O)[C@H]3[C@@](O)(C(=O)OC)[C@H](OC(C)=O)[C@]5(CC)C=CCN6CC[C@]43[C@@H]65)C2)C1 [vincristine] | – | – | 0.617 | 0.651 | 0.606 | 0.557 | 0.576 | – | – | 0.728 | 0.834 | 0.678 | 0.793 | 0.752 | – | – | 0.508 | 0.506 | 0.522 | 0.496 | 0.465 | 0.58 | 0.59 | 0.769 | 0.685 | 0.486 | 0.456
3 | C=CCNC1=C2C[C@@H](C)C[C@H](OC)[C@H](O)[C@@H](C)/C=C(\C)[C@H](OC(N)=O)[C@@H](OC)/C=C\C=C(/C)C(=O)NC(=CC1=O)C2=O [tanespimycin] | 1.06 | 1.03 | 1.06 | 0.956 | 0.938 | 0.501 | 0.0736 | 1.48 | 0.803 | 0.767 | 0.7 | 0.405 | 0.144 | 0.148 | 1 | 0.976 | 0.929 | 0.901 | 0.686 | 0.307 | 0.0406 | – | – | – | – | – | –
4 | CO[C@H]1C[C@@H]2CC[C@@H](C)[C@@](O)(O2)C(=O)C(=O)N2CCCC[C@H]2C(=O)O[C@H]([C@H](C)C[C@@H]2CC[C@@H](O)[C@H](OC)C2)CC(=O)[C@H](C)/C=C(\C)[C@@H](O)[C@@H](OC)C(=O)[C@H](C)C[C@H](C)/C=C/C=C/C=C/1C [sirolimus] | – | – | 1.12 | 0.947 | 1.07 | 0.944 | 0.94 | – | – | 0.81 | 0.644 | 0.677 | 0.521 | 0.453 | – | – | 1.08 | 0.8 | 0.967 | 1.05 | 0.947 | 0.711 | 0.745 | 0.451 | 0.372 | 0.766 | 0.755
5 | O=C(CCCN1CCC(O)(c2ccc(Cl)cc2)CC1)c1ccc(F)cc1 [haloperidol] | – | – | 1.03 | 1.05 | 1.03 | 0.979 | 1.05 | – | – | 1.19 | 1.13 | 1.11 | 0.88 | 1.29 | – | – | 1.02 | 0.985 | 0.893 | 0.939 | 0.979 | 1.11 | 1.05 | 1.16 | 1.32 | 1 | 0.956
6 | O=C(N/N=C/c1ccc(O)c(O)c1)c1cc2ccccc2cc1O [dynasore] | – | – | 1.02 | 1.05 | 1.06 | 1.12 | 0.953 | – | – | 0.779 | 0.85 | 0.742 | 1.03 | 0.645 | – | – | 0.981 | 1.01 | 0.925 | 1.02 | 0.867 | 0.966 | 0.826 | 0.497 | 0.501 | 0.807 | 0.638
7 | O=C(/C=C/c1cccc(S(=O)(=O)Nc2ccccc2)c1)NO [belinostat] | – | – | 1.04 | 1.04 | 1.02 | 0.99 | 1.09 | – | – | 0.814 | 0.805 | 1.05 | 1.14 | 1.19 | – | – | 1.07 | 1.03 | 1.1 | 1.07 | 1.04 | 0.701 | 0.397 | 1.18 | 0.581 | 0.557 | 0.351
8 | O=NN(CCCl)C(=O)NC1CCCCC1 [lomustine] | – | – | 0.906 | 0.972 | 0.927 | 0.932 | 1.02 | – | – | 0.854 | 1.08 | 0.93 | 0.952 | 1.22 | – | – | 0.856 | 0.819 | 0.952 | 0.895 | 1.02 | 0.856 | 0.73 | 1.12 | 0.879 | 0.818 | 0.7
9 | Cn1c(CCCC(=O)O)nc2cc(N(CCCl)CCCl)ccc21 [bendamustine] | – | – | 1.02 | 1.03 | 0.607 | 0.26 | 0.277 | – | – | 0.462 | 0.439 | 0.374 | 0.371 | 0.366 | – | – | 0.945 | 0.814 | 0.265 | 0.1 | 0.145 | 0.264 | 0.284 | 0.422 | 0.454 | 0.133 | 0.162
10 | COc1cc(NS(C)(=O)=O)ccc1Nc1c2ccccc2nc2ccccc12 [amsacrine] | – | – | 0.954 | 0.858 | 0.513 | 0.448 | 0.441 | – | – | 0.619 | 0.639 | 0.486 | 0.428 | 0.312 | – | – | 1.04 | 0.838 | 0.405 | 0.402 | 0.322 | 0.402 | 0.373 | 0.203 | 0.142 | 0.359 | 0.329
11 | COc1cc(-n2c(=S)[nH]c3ccccc3c2=O)c(Cl)cc1Cl [mdivi-1] | – | – | 1.02 | 1.01 | 1.08 | 1.03 | 1.02 | – | – | 0.787 | 0.837 | 0.803 | 1.03 | 1.03 | – | – | 1.02 | 0.927 | 1.04 | 1.01 | 1 | 0.74 | 1.09 | 0.618 | 0.921 | 0.643 | 1.04
12 | CCCC[C@@H](C=O)NC(=O)[C@H](CC(C)C)NC(=O)[C@H](CC(C)C)NC(C)=O [MG-101] | – | – | 1.15 | 1.07 | 1.08 | 0.727 | 0.443 | – | – | 0.692 | 0.642 | 0.697 | 0.608 | 0.346 | – | – | 0.986 | 0.975 | 0.773 | 0.429 | 0.198 | 0.173 | 0.0712 | 0.242 | 0.16 | 0.14 | 0.0899
13 | O=C(CCCCCCC(=O)Nc1ccccc1)NO [vorinostat] | – | – | 1.1 | 1.02 | 0.995 | 0.911 | 1.01 | – | – | 0.929 | 1.04 | 0.893 | 1.13 | 0.926 | – | – | 1.12 | 1.1 | 0.993 | 1.03 | 1.02 | 0.794 | 0.208 | 0.812 | 0.292 | 0.899 | 0.304
